Assay results as given in patent US20230340012A1, “NATURAL AND SYNTHETIC COMPOUNDS FOR TREATING CANCER AND OTHER DISEASES” (PACIFIC ARROW LIMITED, priority 2009, published 2023).

Experiments:
K562 = assay: MTT assay, leukemia (K562); format: cell-based, human
Experimental: (§1) Cells. HTB-9 (bladder), HeLa-S3 (cervix), DU145 (prostate), H460 (lung), MCF-7 (breast), K562 (leukemia), HCT116 (colon), HepG2 (liver), U2OS (bone), T98G (brain), SK-MEL-5 (Skin) and OVCAR 3, ES2 (ovary), Pancreas (Capan), Mouth (KB), Kidney(A498).
(§2) MTT Assay. The procedure for MTT assay followed the method described by Carmichael et al. (1987) with modifications. The cells were seeded into a 96-well plate at for 24 hours before drug-treatment. The cells were then exposed to the drugs for 48, 72, or 96 hours. After the drug-treatment, MTT (0.5 mg/mL) was added to cultures and incubated for an hour. The formazan (product of the reduction of tetrazolium by viable cells) formed and was dissolved with DMSO and the O.D. at 490 nm, and was measured by an ELISA reader. The MTT level of the cells before drug-treatment was also measured (T0). The % cell-growth (%G) is calculated as: %G = (TD-T0 / TC-T0) x 100(1), where TC or TD represents O.D. readings of control or drug-treated cells. When T0 > TD, then the cytotoxicity (LC) expressed as % of the control is calculated as: %LC = (TD-T0 / T0) × 100(2).

MCF-7 = assay: MTT assay, breast (MCF-7); format: cell-based, human
Experimental: as §1, §2

Hey8A cells = assay: Inhibition of cell adhesion, Hey8A; format: cell-based; details: 5 ug/ml, 5 hours
Experimental: (§3) Methods and Results. ES2 or Hey8A cells were plated in T25 flasks with medium containing 5 ug/ml of compounds selected from structure (2A) including E4A-Tig-R, E4A-Tig-V, E4A-Tig-S, E4A-Tig-N, E4A-Tig-Q, E4A-Tig-T. Cultures were incubated for 5 hours. Attached cells were removed from flasks by trypsinization and the numbers/amounts were counted. Compared to no drug controls, 80 ± 4% of ES2 cells and 60 ± 4% of Hey8A cells were found attached to flasks under this condition. At 5 ug/ml of above compounds, over 90% of unattached cells are alive as determined by the trypan Blue exclusion assay and by their ability to re-attach to flasks when plating in medium without tested compounds. However, with 10 ug/ml tested compounds, less than 40% of cells attached to flasks and many of them are dead cells.

DU145 = assay: MTT assay, prostate (DU145); format: cell-based, human
Experimental: as §1, §2

SK-Mel-5 = assay: MTT assay, skin (SK-Mel-5); format: cell-based, human
Experimental: as §1, §2

ES2 cells = assay: Inhibition of cell adhesion, ES2; format: cell-based, human; details: for ES2 cells attached to flasks compared to no drug controls / unattached cells alive: 5 ug/ml; for ES2 cells attached to flasks compared to no drug controls: 5 hours; for unattached cells alive: trypan Blue exclusion; for unattached cells alive / cells attached to flasks: ES2 or Hey8A; for cells attached to flasks: 10 ug/ml
Experimental: as §3

OVCAR3 = assay: MTT assay, ovary (OVCAR3); format: cell-based, human; details: MTT
Experimental: as §1, §2

A498 = assay: MTT assay, kidney (A498); format: cell-based, human
Experimental: as §1, §2

HTB-9 = assay: MTT assay, bladder (HTB-9); format: cell-based, human
Experimental: as §1, §2

cancer cells = assay: Inhibition of cancer growth, cancer invasion, cell invasion or cancer cell invasion; format: cell-based
Text: The program is based on our purification methods and biological assays including the MTT assay. See International Application No. PCT/US05/31900, filed Sep. 7, 2005, U.S. Serial No. 11/289,142, filed Nov. 28, 2005, and U.S. Serial No. 11/131551, filed May 17, 2005, and PCT/US2008/002086, 1188-ALA-PCT, filed Feb. 15, 2008, 12/344,682, 1020-B1-US, filed Dec. 29, 2008. The details of Analysis of gene expression of ES2 cells after Y-treatment by Microarray, Data Analysis Methods and Western blot in PCT/US2008/002086, 1188-ALA-PCT, filed Feb. 15, 2008, and the cell invasion experiments methods in International Application PCT/US2010/0042240, filed Jul. 16, 2010.

U2OS = assay: MTT assay, bone (U2OS); format: cell-based, human
Experimental: as §1, §2

HCT116 = assay: MTT assay, colon (HCT116); format: cell-based, human
Experimental: as §1, §2

HeLa = assay: MTT assay, cervix (HeLa); format: cell-based, human
Experimental: as §1, §2

HepG2 = assay: MTT assay, liver (HepG2); format: cell-based, human
Experimental: as §1, §2

H460 = assay: MTT assay, lung (H460); format: cell-based, human; details: MTT
Experimental: as §1, §2
Methods: • A. Cells • -- H460 cells are derived from a Human Lung large cell carcinoma. Cells were grown in RPMI 1640 medium supplemented with 10% FCS, antibiotics and glutamine. 5000 cells were seeded in a well (96-welled plate) for one day before drug-treatment • B. Drug treatment: • -- Drug: Tig-S (stored as a 1000x stock solution in DMSO) was used. • -- Drug concentration used: from 0.15 - 20 ug/ml. • -- Drug-treatment was carried out for 1, 2 and 4 days. For the 4 days incubation, cells were fed with fresh medium (with drug) on day 2. • C. At the end of the drug-treatment, cytotoxic test was performed with MTT assay. Results: • 1. Tig-S inhibits H460 cells’ growth with the IC50 of drug 3 ug/ml. • 2. […] cells growth inhibition was observed beyond drug 5 ug/ml. • 3. No dead cell was found at drug concentration in 20 ug/ml.

Capan = assay: MTT assay, pancreas (Capan); format: cell-based, human
Experimental: as §1, §2
• A. Cells: Capan cells are derived from Human pancreas carcinoma (pancreas). Cells were grown in RPMI 1640 medium supplemented with 10% FCS, antibiotics and glutamine. 10000 cells were seeded in a well (96-welled plate) for one day before drug-treatment • B. Drug treatment: • -- Drug: Tig-S (stored as a 1000x stock solution in DMSO) was used. • -- Drug concentration used: from 0.15 - 20 ug/ml. • -- Drug-treatment was carried out for 3 days. • C. At the end of the drug-treatment, cytotoxic test was performed with MTT assay. The percentage of drug-treated cells’ growth as compared to those of the no drug control is determined.

Fibronectin = Fibronectin secretion experiment (Western blot); format: cell-based; details: bladder, cervix, prostate, lung, breast, leukemia, colon, liver, bone, brain, skin, ovary, pancreas, mouth, kidney cells; 24 hours
Experimental: Western blot is applied in this invention as a method to detect the specific proteins in treated and untreated cells with compounds in this invention, wherein the cells are bladder, cervix, prostate, lung, breast, leukemia, colon, liver, bone, brain, Skin, ovary, Pancreas(Capan), Mouth(KB), Kidney.
Cells: targeted cells were grown in RPMI 1640 medium. 1.5 million cells were seeded in a T25 flask and grown for 24 hours before drug-treatment.
Drug-treatment: Cells cultures were replaced with fresh RPMI medium containing either 2.5 ul of DMSO (as control) [D]; or 10, 20, 30, 40, 80 ug/ml of tested compounds.
After 24 hours, aliquot of culture medium was taken out for Fibronectin determination (Western blot method).
Cell viability at 24 hours was determined by MTT assay. Cultures were replaced with RPMI medium (5 ml) with MTT and incubated for an hour. The formation of formazan was dissolved in 10 ml of DMSO and OD at 570 nm was measured (MTT units). Western Blot: Spent culture medium was mixed with SDS sample buffer, boiled for 3 minutes before loading to SDS gel. Samples were applied to a 6-10% SDS gel and electrophoresis was conducted with 100 volts for 2 hours. Protein was transferred to a nitrocellulose membrane electrophoretically. The nitrocellulose blot was incubated with the first antibody and second antibody (AP conjugated, Promega S3721). The immuno-bands were developed with BCIP/NBT color development system.
Determination of Western blot band intensity: The band-images of Western blot were captured with a digital camera and the intensity of bands was determined using “Image J” software.

T98G = assay: MTT assay, brain (T98G); format: cell-based, human
Experimental: as §1, §2

KB = assay: MTT assay, mouth (KB); format: cell-based, human
Experimental: as §1, §2

ES2 = assay: MTT assay, ovary (ES2); format: cell-based, human; details: MTT
Experimental: as §1, §2
Method: A. Cells • -WI38 is a Normal Lung fibroblast. Cells were grown in MEM medium supplemented with 10% FCS, antibiotics and glutamine. 20 K cells were seeded per well (96-welled plate) for one day before drug-treatment • -ES2 is an Ovary Clear cells carcinoma. Cells were grown in RPMI-1640 medium supplemented with 10% FCS, antibiotics and glutamine. 10 K cells were seeded per well (96-welled plate) for one day before drug-treatment.
B. Drug treatment: • -Drug: Tig-S. stored as 1000x stock solution in DMSO. • -Drug concentration used: from 0.15 - 20 ug/ml. • -Drug-treatment was carried out for 2 days (ES2) or 6 days (WI38). For the 6 days incubation, cells were fed with fresh medium (with drug) on day 3 and 5.
C. At the end of the drug-treatment, cytotoxic test was performed with MTT assay.

| IC50 of leukemia (K562) (K562) | IC50 of breast (MCF-7) (MCF-7) | IC50 of prostate (DU145) (DU145) | IC50 of skin (SK-Mel-5) (SK-Mel-5) | IC50 of ovary (OVCAR3) (OVCAR3) | IC50 of bone (U2OS) (U2OS) | IC50 of colon (HCT116) (HCT116) | IC50 of cervix (HeLa) (HeLa) | IC50 of liver (HepG2) (HepG2) | IC50 of lung (H460) (H460) | SMILES | Hey8A cells attached to flasks compared to no drug controls (Hey8A cells) | ES2 cells attached to flasks compared to no drug controls (ES2 cells) | unattached cells alive (ES2 cells) | cells attached to flasks (ES2 cells) | IC50 of kidney (A498) (A498) | IC50 of bladder (HTB-9) (HTB-9) | anti-cancer activity (cancer cells) | IC50 of pancreas (Capan) (Capan) | inhibition of fibronectin secretion (Fibronectin) | IC50 of brain (T98G) (T98G) | also measured |
| --- | --- | --- | --- | --- | --- | --- | --- | --- | --- | --- | --- | --- | --- | --- | --- | --- | --- | --- | --- | --- | --- |
| 6 µg/mL | 18 µg/mL | 15 µg/mL | 20 µg/mL | 23 µg/mL | 20 µg/mL | 22 µg/mL | 20 µg/mL | 24 µg/mL | 18 µg/mL | CC=C(C)C(=O)OCC1(C)C(O)CCC2(C)C1CCC1(C)C2CC=C2C3CC(C)(C)C(O)C(OC(=O)C(C)=CC)C3(CO)C(O)CC21C (centres unmarked) [Tig-Q] | 60 ± 4% | 80 ± 4% | over 90% | less than 40% | 13 µg/mL | 10 µg/mL | have anti-cancer activities | 9 µg/mL | 20-40% | 29 µg/mL | – |
| 10 µg/mL | 25 µg/mL | 15 µg/mL | 24 µg/mL | 27 µg/mL | 23 µg/mL | 26 µg/mL | 17 µg/mL | 23 µg/mL | 19 µg/mL | CC=C(C)C(=O)OCC1(C)C(OC(=O)C(C)=CC)CCC2(C)C1CCC1(C)C2CC=C2C3CC(C)(C)C(OC(=O)C(C)=CC)C(O)C3(CO)C(O)CC21C (centres unmarked) [Tig-U] | – | – | – | – | 18 µg/mL | 15 µg/mL | – | 9 µg/mL | – | 22 µg/mL | IC50 of mouth (KB) (KB): 16 µg/mL; IC50 of ovary (ES2) (ES2): 17 µg/mL |
| 4 µg/mL | 9 µg/mL | 4 µg/mL | 6 µg/mL | 9 µg/mL | 7 µg/mL | 8 µg/mL | 7 µg/mL | – | 6.8 µg/mL | CC=C(C)C(=O)OCC1(C)C(O)CCC2(C)C1CCC1(C)C2CC=C2C3CC(C)(C)C(OC(=O)C(C)=CC)C(O)C3(COC(=O)C(C)=CC)C(O)CC21C (centres unmarked) [Tig-V] | 60 ± 4% | 80 ± 4% | over 90% | less than 40% | 4.8 µg/mL | 4 µg/mL | have anti-cancer activities | – | 20-40% | 14 µg/mL | IC50 of mouth (KB) (KB): 4.5 µg/mL; IC50 of ovary (ES2) (ES2): 2 µg/mL |
